In patent US20160051514A1, “METHODS FOR TREATMENT OF CARDIOMYOPATHY” (THE BRIGHAM AND WOMEN'S HOSPITAL, INC., priority 2013, published 2016):
“Also recorded” adds a separate entry of the source.

What was measured:
[1] = tested on: mutant desmoglein-2 (Dsg2) knock-in mice; assay: Mouse model of AC: mutant desmoglein-2 (Dsg2) knock-in; type: in vivo; details: daily injections for 13 weeks
Method: 2 different mouse models of AC were studied: a transgenic line with cardiac myocyte-specific expression of 2057del2 plakoglobin (Plk) and a mutant desmoglein-2 (Dsg2) knock-in model. ECG telemetry and echocardiographic analyses were performed in mutant and wildtype mice treated with daily injections of SB216763 or vehicle for 6 (2057del2 Plk) or 13 (Dsg2) weeks. Hearts excised at selected time points were analyzed for histology, apoptosis and distribution of key intercalated disk proteins.

[2] = tested on: neonatal rat ventricular myocytes expressing 2057del2 plakoglobin; assay: Immunofluorescence of intercalated disk proteins in neonatal rat ventricular myocytes; type: cell-based
Method: Neonatal rat ventricular myocyte isolation and culture, stretch protocols: Primary cardiac myocyte cultures were prepared from ventricles of 1-day-old Wistar rat pups (Charles River) as previously described.^9 Cells were plated on collagen-coated plastic chamber slides at a density of […] cells/cm^2 and grown for 4 days prior to experimentation. In selected experiments, monolayers grown on collagen--coated silicone membranes were subjected to linear pulsatile stretch using a custom-designed apparatus as described in previous studies.'° Cells were stretched to 110% of resting length at a. frequency of 3 Hz for 1-4 hr in serum-free medium. In other experiments cultures were incubated with reagents including pifitlirin A (5 μM, 1 hr) and SB216763 (5 μM, 24 hr) prior to experimentation. All protocols were approved by the Institutional Animal Care and Use Committee (IACUC).
Viral transfection: A recombinant adenoviral construct expressing 2057del2-plakoglobin was created with the ViraPower Adenoviral Expression system (Invitrogen) using the pAd/CMV/V5-DEST vector through LR clonase-mediated recombination. The V5-tag was used to identify the mutant protein and distinguish it from wildtype plakoglobin. Two days post-plating, monolayers were exposed to viral solution (1:130 dilution in serum-free media, 37° C.) for 1 hr after which viral solution was replaced with complete medium in the presence or absence of reagents.
Immunofluoresence staining and microscopy in cultured cells: Cultures were rinsed in serum-free medium and fixed in 4% paraformaldehyde at room temperature for 5 min or in acetone at −20° C. for 10 min. Fixed cells were immunostained with mouse monoclonal anti-plakoglobin (Sigma), anti-N-cadhcrin (Sigma), anti-Cx43 (Millipore), anti-desmopla.kin (Fitzgerald), anti-SAP97 (Santa Cruz Biotechnology) antibodies and anti-Nav1.5 (kindly provided by Dr. Hugues Abriel, University of Bern, Switzerland) antibodies. Specific immunoreactive signal was detected by laser scanning confocal microscopy as previously described.”
Neonatal rat ventricular myocyte isolation, culture, stretch protocols: Primary cardiac myocyte cultures were prepared from ventricles of 1-day-old Wistar rat pups (Charles River) as previously described (36). Cells were plated on collagen-coated plastic chamber slides at a density of 2.4×10^5 cells/cm2 and grown for 4 days prior to experimentation. In selected experiments, monolayers grown on collagen-coated silicone membranes were subjected to linear pulsatile stretch using a custom-designed apparatus as described in previous studies (35). Cells were stretched to 110% of resting length at a frequency of 3 Hz for 1-4 hr in serum-free medium. In other experiments cultures were incubated with reagents including pifithrin A (5 μM, 1 hr) and SB216763 (0.1-10 μM for 12 or 24 hr) prior to experimentation. Vehicle controls (DMSO) were included in all experiments.
Viral transfection: A recombinant adenoviral construct expressing 2057del2 plakoglobin was created with the ViraPower Adenoviral Expression™ system (Invitrogen) using the pAd/CMV/V5-DEST vector through LR clonase-mediated recombination. The V5-tag was used to identify the mutant protein and distinguish it from wildtype plakoglobin. Two days post-plating, monolayers were exposed to viral solution (1:130 dilution in serum-free media, 37° C.) for 1 hr after which viral solution was replaced with complete medium in the presence or absence of reagents. Immunofluorescence staining and microscopy in cultured cells: Cultures were rinsed in serum-free medium and fixed in 4% paraformaldehyde at 25° C. for 5 min or in acetone at −20° C. for 10 min. Fixed cells were immunostained with mouse monoclonal anti-plakoglobin (Sigma), anti-N-cadherin (Sigma), anti-Cx43 (Millipore), anti-desmoplakin (Fitzgerald), anti-SAP97 (Santa Cruz Biotechnology) antibodies and anti-Nav1.5 antibodies (rabbit polyclonal).

[3] = cells expressing 2057del2 plakoglobin, 5 μM, 24 hr
[4] = cells expressing 2057del2 plakoglobin, 5 μM, 24 hr, listed as SAB216763
[5] = cells expressing 2057del2 plakoglobin, exposure for 24 hr

Cn1cc(C2=C(c3ccc(Cl)cc3Cl)C(=O)NC2=O)c2ccccc21 [SB216763]
QRS duration [1]: 17.1 ± 2.7 ms | Redistribution of junctional signals for Plk, Cx43 and SAP97, and myocardial apoptosis [1]: normalized | Ejection fraction (EF) ([1]; echocardiography): 73.9±6.9% | Fractional shortening (FS) ([1]; echocardiography): 50.2±6.6% | Disease features (plakoglobin redistribution, gap junction remodeling, cytokine expression, myocyte apoptosis), summary statements [2]: normalized; also recorded: reversed or prevented | Gap junction remodeling / junctional Cx43 signal [2, 3]: increased junctional signal for Cx43; also recorded: prevented the adverse remodeling of gap junctions | Subcellular distribution of plakoglobin immunoreactive signal (junctional vs intracellular/nuclear) [2, 3]: prevented the marked change in subcellular distribution of plakoglobin and accumulation of nuclear signal | Gap junction remodeling / junctional Cx43 signal [2, 4]: blocked | Subcellular distribution of plakoglobin immunoreactive signal (junctional vs intracellular/nuclear) [2, 4]: prevented redistribution of plakoglobin from junctional to intracellular pools | Nav1.5 immunoreactive signal [2, 5]: signal levels were restored; also recorded: reversed | SAP97 immunoreactive signal at the cell surface / cell-cell junctions [2, 5]: a more normal distribution was restored; also recorded: fully reversed | Cx43 signal at cell-cell junctions in control (non-transfected) cultures ([2]; control cultures, 5 μM, 24 hr): increased the amount of Cx43 signal at cell-cell junctions; also recorded: also increased junctional signal for Cx43 | Concentration of maximal effect in restoring normal cellular distribution of plakoglobin and Cx43 signals ([2]; dose-response 0.1-10 μM for 12 or 24 hours, maximal at 24 hr): 5 µM
